Results taken from ChEMBL document CHEMBL3804772, “Enantioselective synthesis and antioxidant activity of 3,4,5-substituted piperidine derivatives” (Bioorg Med Chem Lett, 2016).

Assay: Antioxidant activity assessed as ABTS radical scavenging activity after 60 mins
Type: physicochemical

| IC50 | SMILES |
| --- | --- |
| > 100 µM | OC[C@@H]1CN(Cc2ccccc2)CC[C@H]1c1ccccc1 |
| 0.095 µM | CC1(C)CCCC(C)(C)N1O[C@@H]1CN(Cc2ccccc2)C[C@@H](CO)[C@@H]1c1ccc(F)cc1 |
| 0.09 µM | Cc1ccc([C@H]2[C@H](CO)CN(Cc3ccccc3)C[C@H]2ON2C(C)(C)CCCC2(C)C)cc1 |
| > 100 µM | OC[C@@H]1CN(Cc2ccccc2)C[C@@H](O)[C@H]1c1ccccc1 |
| 85.3 µM | Cc1ccc([C@H]2[C@H](CO)CN(Cc3ccccc3)C[C@H]2O)cc1 |
| > 100 µM | CCOC(=O)[C@@H]1C(=O)N(Cc2ccccc2)C[C@@H](O)[C@H]1c1ccccc1 |
| > 100 µM | CCOC(=O)[C@@H]1C(=O)N(Cc2ccccc2)C[C@@H](O)[C@H]1c1ccc(C)cc1 |
| 12.2 µM | CCOC(=O)[C@@H]1C(=O)N(Cc2ccccc2)C[C@@H](ON2C(C)(C)CCCC2(C)C)[C@H]1c1ccccc1 |
| 25.6 µM | O=C1O[C@H]([C@@H](O)CO)C(O)=C1O [ASCORBIC ACID] |
| 0.093 µM | CC1(C)CCCC(C)(C)N1O[C@@H]1CN(Cc2ccccc2)C[C@@H](CO)[C@@H]1c1ccccc1 |
| 0.573 µM | CC(=O)OC[C@@H]1CN(Cc2ccccc2)C[C@@H](ON2C(C)(C)CCCC2(C)C)[C@H]1c1ccccc1 |
| 9.61 µM | OC[C@@H]1CN(Cc2ccccc2)C[C@@H](O)[C@H]1c1ccc(F)cc1 |
| > 100 µM | CCOC(=O)[C@@H]1C(=O)N(Cc2ccccc2)C[C@@H](O)[C@H]1c1ccc(F)cc1 |
| > 100 µM | CCOC(=O)[C@@H]1C(=O)N(Cc2ccccc2)CC[C@H]1c1ccccc1 |
| 98.4 µM | CCOC(=O)[C@@H]1C(=O)N(Cc2ccccc2)C[C@@H](ON2C(C)(C)CCCC2(C)C)[C@H]1c1ccc(C)cc1 |
| 15.9 µM | CCOC(=O)[C@@H]1C(=O)N(Cc2ccccc2)C[C@@H](ON2C(C)(C)CCCC2(C)C)[C@H]1c1ccc(F)cc1 |

| SMILES | IC50 |
| --- | --- |
| O=c1c(O)c(-c2ccc(O)c(O)c2)oc2cc(O)cc(O)c12 [QUERCETIN] | 5.57 µM |
| CC1(C)CCCC(C)(C)N1[O] | 0.026 µM |
